In series [1] the target is T1, SbnA (Staphylococcus aureus, UniProt A6QDA0).
T1 construct: synthetic codon-optimised gene in pSH21p::TrxA, His-Trx tag with TEV site, tag cleaved and removed; expressed in E. coli BL21 ArcticExpress (DE3)
The series can be described thus: PNP-coupled continuous assay (MESG, […] nm). It counts as biochemical.

In series [2] the target is T1, SbnA. Description: PNP-coupled continuous assay (MESG, […] nm), global fit. It counts as biochemical.
The target in series [3] is T1, SbnA. The series can be described thus: PNP-coupled continuous assay, global fit to ping-pong with substrate inhibition. It counts as biochemical. The conditions noted are these: substrate inhibition (unproductive binding to internal aldimine); 0.035-0.720 mM L-OPS; 50 mM HEPES pH 7.8, 1 mM TCEP, 25 °C.
The test system of series [4] is N[C@@H](COP(=O)(O)O)C(=O)O. The series can be described thus: purified protein. The conditions noted are these: co-substrate L-Glu 0.1-150 mM, 50 mM HEPES pH 7.8, 1 mM TCEP, 25 °C.

The IC50 is the concentration needed to halve the response being measured. Low readings indicate higher potency, high ones lower potency. The Km is the substrate concentration at which the rate is half of its maximum. What is called kcat/Km is the turnover number divided by the Michaelis constant.

T1 sequence (A6QDA0 whole entry): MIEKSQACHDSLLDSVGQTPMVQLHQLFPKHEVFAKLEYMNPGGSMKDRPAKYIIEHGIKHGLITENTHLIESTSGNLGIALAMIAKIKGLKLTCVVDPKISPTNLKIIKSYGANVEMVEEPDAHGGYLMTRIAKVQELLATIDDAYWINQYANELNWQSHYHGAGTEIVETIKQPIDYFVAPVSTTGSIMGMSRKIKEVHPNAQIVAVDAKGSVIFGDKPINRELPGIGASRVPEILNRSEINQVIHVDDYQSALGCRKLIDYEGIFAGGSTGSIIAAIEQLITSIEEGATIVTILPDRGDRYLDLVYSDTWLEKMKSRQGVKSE

`O=C(O)CC(C(=O)O)c1ccccc1` (racemic) [compound 2, 2-phenylsuccinic acid] returned an IC50 on SbnA [1] of 366 ± 37 µM. At SbnA [2], this compound displayed a Ki of 124 ± 13 µM. As for `N[C@@H](CCC(=O)O)C(=O)O` [L-glutamate], on SbnA [3], the “Ki” value was determined as 25750 ± 7930 µM.

For the compound `O=C(O)CC(O)(CC(=O)O)C(=O)O` [citrate], at SbnA [1], half-maximal inhibition (IC50) was put at 800 ± 100 µM. At SbnA [2], this compound registered a Ki of 900 ± 200 µM. On the same counts, the results for `O=C(O)/C=C(\C(=O)O)c1ccccc1` [compound 3, Z-2-phenylbut-2-enedioic acid] are 37 ± 3 µM and 16 ± 2 µM. Compound `O=C(O)CCC(=O)C(=O)O` [α-ketoglutarate] returned an IC50 at SbnA [1] of 2600 ± 200 µM. Regarding “SbnA (Staphylococcus aureus subsp. aureus str. Newman)”, in series [4], the Km was 27 ± 6 µM and the catalytic efficiency (kcat/Km) was 170000 M⁻¹ s⁻¹.

The record behind these values is PMC12414870, “First‐in‐class inhibitors of SbnA reduce siderophore production in Staphylococcus aureus” (The Febs Journal, 2025).
